What follows are compounds tested on HBsAg in HepG2.2.15 cells (assay: HBsAg assay: inhibition of HBsAg in HepG2.2.15 cells (chemiluminescence immunoassay of supernatant)). Conditions: Hepatitis B virus, HepG2.2.15, 144 h, read-out: sAg EC50, HepG2.2.15 cells, supernatant collected at day 6 after exposure, HBsAg CLIA.
Assay type: cell-based, hepatitis B virus
Description: Inhibition of HBsAg was determined in HepG2.2.15 cells. Cells were maintained in culture medium containing 10% fetal calf serum, […], Glutamine, penicillin/streptomycin. Cells were seeded in 96-well collagen-coated plate at a density of 30,000 cells/well. Serially diluted compounds were added to cells next day at the final DMSO concentration of 0.5%. Cells were incubated with compounds for 2-3 days, after which medium was removed. Fresh medium containing compounds was added to cells for additional 3-4 days. At day 6 after exposure of compounds, supernatant was collected, the HBsAg immunoassay (microplate-based chemiluminescence immunoassay kits, CLIA, Autobio Diagnosics Co., Zhengzhou, China, Catalog #CL0310-2) was used to determine the level of HBsAg according to manufactory instruction. Dose-response curves were generated and the EC50 value (effective concentrations that achieved 50% inhibitory effect) were determined using XLfit software. In addition, cells were seeded at a density of 5,000 cells/well for determination of cell viability in the presence and absence of compounds by using CellTiter-Glo reagent (Promega).

First: CCC1c2ccc(F)c(F)c2CCN1c1cnc(-c2ncccn2)nc1 (stereo not drawn) [Example 32, 1-Ethyl-5,6-difluoro-2-(2-pyrimidin-2-ylpyrimidin-5-yl)-3,4-dihydro-1H-isoquinoline]
Second: CCC1c2ccc(F)c(F)c2CCN1c1ccnc(-c2ncccn2)n1 (stereo not drawn) [Example 39, 1-Ethyl-5,6-difluoro-2-(2-pyrimidin-2-ylpyrimidin-4-yl)-3,4-dihydro-1H-isoquinoline]
The EC50 of the first is 3.4-fold higher: 2000 nM for the first, 590 nM for the second. The second is the more potent here.

First: CCC1c2c(OC)ccc(F)c2CCN1c1cnc(-c2ncccn2)nc1 (stereo not drawn) [Example 35, 1-Ethyl-5-fluoro-8-methoxy-2-(2-pyrimidin-2-ylpyrimidin-5-yl)-3,4-dihydro-1H-isoquinoline]
Second: CCC1c2c(OC)ccc(F)c2CCN1c1ccnc(-c2ncccn2)n1 (stereo not drawn) [Example 42, 1-Ethyl-5-fluoro-8-methoxy-2-(2-pyrimidin-2-ylpyrimidin-4-yl)-3,4-dihydro-1H-isoquinoline]
The EC50 of the first is 10-fold higher: 620 nM for the first, 62 nM for the second.

Going from `CC1c2ccc(F)c(F)c2CCN1c1ccnc(-c2ncccn2)n1` (stereo not drawn) [Example 36, 2-([2,2′-Bipyrimidin]-4-yl)-5,6-difluoro-1-methyl-1,2,3,4-tetrahydroisoquinoline] to `CCC1c2ccc(F)c(OC)c2CCN1c1ccnc(-c2ncccn2)n1` (stereo not drawn) [Example 46, 1-Ethyl-6-fluoro-5-methoxy-2-(2-pyrimidin-2-ylpyrimidin-4-yl)-3,4-dihydro-1H-isoquinoline], the EC50 falls from 480 nM to 130 nM (3.7-fold).

First: CCC1c2cc(OC)c(F)c(F)c2CCN1c1ccnc(-c2ncccn2)n1 (stereo not drawn) [Example 47, 1-Ethyl-5,6-difluoro-7-methoxy-2-(2-pyrimidin-2-ylpyrimidin-4-yl)-3,4-dihydro-1H-isoquinoline]
Second: CCC1c2cc(OC)c(F)cc2CN1c1ccnc(-c2ncccn2)n1 (stereo not drawn) [Example 76, 2-([2,2′-Bipyrimidin]-4-yl)-1-ethyl-5-fluoro-6-methoxyisoindoline]
The EC50 of the first is 4-fold higher: 480 nM for the first, 120 nM for the second. The second is the more potent here.

First: CCC1c2cc(F)c(F)cc2CN1c1ccnc(-c2ncccn2)n1 (stereo not drawn) [Example 48, 2-([2,2′-Bipyrimidin]-4-yl)-1-ethyl-5,6-difluoroisoindoline]
Second: CCC1c2cc(F)c(OC)cc2CN1c1ccnc(-c2ncccn2)n1 (stereo not drawn) [Example 63, 2-([2,2′-Bipyrimidin]-4-yl)-1-ethyl-6-fluoro-5-methoxyisoindoline]
The EC50 of the first is 4.4-fold higher: 92 nM for the first, 21 nM for the second. The second is the more potent here.

Going from `CCC1c2cc(F)c(F)cc2CN1c1nc(-c2ncccn2)ncc1F` (stereo not drawn) [Example 51, 1-Ethyl-5,6-difluoro-2-(5-fluoro-[2,2′-bipyrimidin]-4-yl)isoindoline] to `CCC1c2cc(F)c(F)cc2CN1c1nc(-c2ncccn2)ncc1C` (stereo not drawn) [Example 52, 1-Ethyl-5,6-difluoro-2-(5-methyl-[2,2′-bipyrimidin]-4-yl)isoindoline], the EC50 rises from 27 nM to 43 nM (1.6-fold).

Compared with `CCC1c2cc(F)c(F)cc2CN1c1nc(-c2ncccn2)ncc1Cl` (stereo not drawn) [Example 53, 2-(5-Chloro-[2,2′-bipyrimidin]-4-yl)-1-ethyl-5,6-difluoroisoindoline], `CCC1c2cc(F)c(F)cc2CN1c1nc(-c2ncccn2)ncc1C1CC1` (stereo not drawn) [Example 54, 2-(5-Cyclopropyl-[2,2′-bipyrimidin]-4-yl)-1-ethyl-5,6-difluoroisoindoline] is 7.3-fold higher in EC50: 30 nM for the first, 220 nM for the second.

First: CCC1c2cc(OC)c(OC)cc2CN1c1ccnc(-c2ncccn2)n1 (stereo not drawn) [Example 55, 2-([2,2′-Bipyrimidin]-4-yl)-1-ethyl-5,6-dimethoxyisoindoline]
Second: CCC1c2cc(OC)c(OC)cc2CN1c1nc(-c2ncccn2)ncc1C (stereo not drawn) [Example 58, 1-Ethyl-5,6-dimethoxy-2-(5-methyl-[2,2′-bipyrimidin]-4-yl)isoindoline]
The EC50 of the first is 12-fold higher: 24 nM for the first, 2 nM for the second. The second is the more potent here.

Compared with `CCC1c2cc(OC)c(OC)cc2CN1c1nc(-c2ncccn2)ncc1NC` (stereo not drawn) [Example 59, 4-(1-Ethyl-5,6-dimethoxyisoindolin-2-yl)-N-methyl-[2,2′-bipyrimidin]-5-amine], `CCC1c2cc(OC)c(OC)cc2CN1c1nc(-c2ncccn2)ncc1Cl` (stereo not drawn) [Example 60, 2-(5-Chloro-[2,2′-bipyrimidin]-4-yl)-1-ethyl-5,6-dimethoxyisoindoline] is 43-fold lower in EC50: 130 nM for the first, 3 nM for the second. The second is the more potent here.

Going from `CCC1c2cc(OC)c(OC)cc2CN1c1nc(-c2ncccn2)ncc1C1CC1` (stereo not drawn) [Example 61, 2-(5-Cyclopropyl-[2,2′-bipyrimidin]-4-yl)-1-ethyl-5,6-dimethoxyisoindoline] to `CCC1c2cc(OC)c(OC)cc2CN1c1nc(-c2ncccn2)ncc1C(C)C` (stereo not drawn) [Example 62, 1-Ethyl-2-(5-isopropyl-[2,2′-bipyrimidin]-4-yl)-5,6-dimethoxyisoindoline], the EC50 rises from 14 nM to 1000 nM (71-fold). The first is the more potent here.

First: CCC1c2cc(F)c(OC)cc2CN1c1nc(-c2ncccn2)ncc1F (stereo not drawn) [Example 70, 1-Ethyl-6-fluoro-2-(5-fluoro-[2,2′-bipyrimidin]-4-yl)-5-methoxyisoindoline]
Second: CCC1c2cc(F)c(O)cc2CN1c1nc(-c2ncccn2)ncc1F (stereo not drawn) [Example 75, 1-Ethyl-6-fluoro-2-(5-fluoro-[2,2′-bipyrimidin]-4-yl)isoindolin-5-ol]
The EC50 of the first is 140-fold lower: 5 nM for the first, 700 nM for the second. The first is the more potent here.

`c1cnc(-c2nccc(N3CC4CCC3c3ccccc34)n2)nc1` (stereo not drawn) [Example 79, 10-([2,2′-Bipyrimidin]-4-yl)-1,2,3,4-tetrahydro-1,4-(epiminomethano)naphthalene] and `c1cnc(-c2nccc(N3CC4CC3c3ccccc34)n2)nc1` (stereo not drawn) [Example 83, 2-([2,2′-Bipyrimidin]-4-yl)-1,2,3,4-tetrahydro-1,4-methanoisoquinoline] are within 1.5-fold of each other in EC50: 6000 nM for the first, 5000 nM for the second.

Compared with `Fc1cnc(-c2ncccn2)nc1N1CC2CCC1c1ccccc12` (stereo not drawn) [Example 80, 10-(5-Fluoro-[2,2′-bipyrimidin]-4-yl)-1,2,3,4-tetrahydro-1,4-(epiminomethano)naphthalene], `Cc1cnc(-c2ncccn2)nc1N1CC2CCC1c1ccccc12` (stereo not drawn) [Example 81, 10-(5-Methyl-[2,2′-bipyrimidin]-4-yl)-1,2,3,4-tetrahydro-1,4-(epiminomethano)naphthalene] is 2.5-fold lower in EC50: 700 nM for the first, 280 nM for the second. The second is the more potent here.

Compared with `c1cnc(-c2nccc(N3C4CCC3c3ccccc34)n2)nc1` [Example 82, 9-([2,2′-Bipyrimidin]-4-yl)-1,2,3,4-tetrahydro-1,4-epiminonaphthalene], `Cc1cnc(-c2ncccn2)nc1N1C2CCC1c1ccccc12` [Example 85, 9-(5-Methyl-[2,2′-bipyrimidin]-4-yl)-1,2,3,4-tetrahydro-1,4-epiminonaphthalene] is 3-fold lower in EC50: 9000 nM for the first, 3000 nM for the second.

Compared with `COc1cc2c(cc1OC)C1CCC2N1c1cnc(-c2ncccn2)nc1` [Example 84, 9-([2,2′-Bipyrimidin]-5-yl)-6,7-dimethoxy-1,2,3,4-tetrahydro-1,4-epiminonaphthalene], `COc1cc2c(cc1OC)C1CCC2N1c1nc(-c2ncccn2)ncc1F` [Example 87, 9-(5-Fluoro-[2,2′-bipyrimidin]-4-yl)-6,7-dimethoxy-1,2,3,4-tetrahydro-1,4-epiminonaphthalene] is 4-fold lower in EC50: 4000 nM for the first, 1000 nM for the second.

`Fc1cnc(-c2ncccn2)nc1N1C2CCC1c1ccccc12` [Example 86, 9-(5-Fluoro-[2,2′-bipyrimidin]-4-yl)-1,2,3,4-tetrahydro-1,4-epiminonaphthalene] and `COc1cc2c(cc1OC)C1CCC2N1c1nc(-c2ncccn2)ncc1C` [Example 88, 6,7-Dimethoxy-9-(5-methyl-[2,2′-bipyrimidin]-4-yl)-1,2,3,4-tetrahydro-1,4-epiminonaphthalene] are within 1.5-fold of each other in EC50: 2400 nM for the first, 2000 nM for the second.

In the case of `CCC1c2cc(OC)c(OC)cc2CN1c1nc(-c2ncccn2)nc2ccoc12` (stereo not drawn) [Example 91, 4-(1-Ethyl-5,6-dimethoxyisoindolin-2-yl)-2-(pyrimidin-2-yl)furo[3,2-d]pyrimidine], the EC50 is reported as 150 nM.

Source: patent US20210251991A1, “SUBSTITUTED 2,2'-BIPYRIMIDINYL COMPOUNDS, ANALOGUES THEREOF, AND METHODS USING SAME” (priority 2018, published 2021)
